Results reported in publication doi:10.1101/2020.05.29.122762v3 (biorxiv, 2020).
Where two headings read alike, the source gives them in different places.

Assays:
type PN SadP(125-329) [1] = target: type PN SadP(125-329) (Streptococcus suis, UniProt G5DSS1, N271D); test: biochemical
[2] = target: type PO SadP-6407(31-328); conditions: PBS, 25 °C
[3] = target: T1, type PN SadP-D282(31-328) (Streptococcus suis, UniProt G5DSS1); conditions: PBS, 25 °C; n=1.14
T1 sequence (G5DSS1 31-328): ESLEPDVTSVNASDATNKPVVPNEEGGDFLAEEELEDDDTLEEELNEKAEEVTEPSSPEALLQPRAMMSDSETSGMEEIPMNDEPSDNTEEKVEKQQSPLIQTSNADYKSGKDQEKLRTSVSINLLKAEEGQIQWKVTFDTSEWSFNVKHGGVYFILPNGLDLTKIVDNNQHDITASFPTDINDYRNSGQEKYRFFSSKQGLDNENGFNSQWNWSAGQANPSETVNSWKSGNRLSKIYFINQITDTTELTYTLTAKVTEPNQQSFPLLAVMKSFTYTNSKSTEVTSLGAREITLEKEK

type PN SadP(125-329) [4] = target: T2, type PN SadP(125-329) (Streptococcus suis, UniProt G5DSS1); test: biochemical
T2 sequence (G5DSS1 125-329): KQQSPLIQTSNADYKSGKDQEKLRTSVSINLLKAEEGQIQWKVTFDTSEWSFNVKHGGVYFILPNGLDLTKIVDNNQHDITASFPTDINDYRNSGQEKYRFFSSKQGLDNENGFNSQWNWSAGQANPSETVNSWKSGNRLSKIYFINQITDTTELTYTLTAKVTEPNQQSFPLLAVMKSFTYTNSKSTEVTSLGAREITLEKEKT

C[Si](C)(C)CCO[C@@H]1O[C@H](CO)[C@H](O[C@H]2O[C@H](CO)[C@H](O)[C@H](O)[C@H]2O)[C@H](O)[C@H]1O [Galα1–4Gal TMSEt glycoside]
Kd (type PN SadP(125-329) [1]): 22.7 ± 7.2 µM
Kd ([2]; n=0.85): 3.5 ± 1.6 µM

CC(=O)N[C@H]1[C@H](O[C@H]2[C@@H](O)[C@@H](CO)O[C@H](O[C@@H]3[C@H](O)[C@@H](O)[C@H](OCC[Si](C)(C)C)O[C@@H]3CO)[C@@H]2O)O[C@H](CO)[C@H](O)[C@@H]1O [GalNAcβ1–3Galα1–4Gal TMSEt glycoside]
Kd [3]: 33.7 ± 3.5 µM
Kd (type PN SadP(125-329) [4]): 36 ± 4.8 µM
Kd ([2]; n=0.13, poorly defined fit): 940 ± 680 µM
